These results are taken from patent publication US10927105B1 (Lundbeck La Jolla Research Center, Inc., priority 2017, dated 2021).

Some results are limits rather than exact numbers.

Broadly, the IC50 is the concentration needed to halve the response being measured.

Sequence of MAGL (Q99685 whole entry): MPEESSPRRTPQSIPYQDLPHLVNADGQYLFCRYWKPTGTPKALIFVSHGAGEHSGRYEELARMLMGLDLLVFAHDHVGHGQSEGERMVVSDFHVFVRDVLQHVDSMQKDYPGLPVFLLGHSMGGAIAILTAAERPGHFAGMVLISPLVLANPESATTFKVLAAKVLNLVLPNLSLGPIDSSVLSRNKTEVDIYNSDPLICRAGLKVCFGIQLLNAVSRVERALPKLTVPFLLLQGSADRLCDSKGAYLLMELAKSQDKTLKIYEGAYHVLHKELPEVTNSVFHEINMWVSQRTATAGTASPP

The test addresses MAGL (Homo sapiens (Human), UniProt Q99685). In words: In vitro competitive activity-based protein profiling (human prefrontal cortex membrane fractions, FP-Rh probe), MAGL band. As to conditions: read-out: MAGL IC50 (μM) (human); human prefrontal cortex membrane fractions.
Protocol: Biological Evaluation In Vitro Competitive Activity-Based Protein Profiling.
Proteomes (mouse brain membrane fraction for mouse assays; human prefrontal cortex membrane fractions for human assays) (50 mL, 1.0 mg/mL total protein concentration) were preincubated with varying concentrations of inhibitors at 37° C. After 30 min, FP-Rh (1.0 mL, 50 mM in DMSO) was added and the mixture was incubated for another 30 min at 37° C. Reactions were quenched with SDS loading buffer (15 μL-4×) and run on SDS-PAGE.
Turning to `O=C(O)c1ccn(C(=O)N2CCC3(CC2)CN(Cc2cc(Cl)ccc2C(F)(F)F)C3)n1` [Example 313, 1-(2-(5-chloro-2-(trifluoromethyl)-benzyl)-2,7-diazaspiro[3.5]-nonane-7-carbonyl)-1H-pyrazole-3-carboxylic acid], the IC50 is less than 0.1 µM.
For `O=C(O)c1ccn(C(=O)N2CCN(Cc3cccc(Oc4cccc(Cl)c4)c3)CC2)n1` [Example 84, 1-(4-(3-(3-chlorophenoxy)-benzyl)-piperazine-1-carbonyl)-1H-pyrazole-3-carboxylic acid], the IC50 is less than 0.1 µM.
On to `O=C(O)c1ccn(C(=O)N2CCN(Cc3cc(Cl)cc(-c4cncnc4)c3)CC2)n1` [Example 269, 1-(4-(3-chloro-5-(pyrimidin-5-yl)benzyl)-piperazine-1-carbonyl)-1H-pyrazole-3-carboxylic acid], for which the IC50 is less than 0.1 µM.
In the case of `C[C@@H]1CN(Cc2ccc(C(F)(F)F)cc2N2CCCC2)CCN1C(=O)n1ccc(C(N)=O)n1` [Example 325, (R)-1-(2-methyl-4-(2-(pyrrolidin-1-yl)-4-(trifluoromethyl)-benzyl)piperazine-1-carbonyl)-1H-pyrazole-3-carboxamide], the IC50 is less than 0.1 µM.
In the case of `Cc1cn(C(=O)N2CCN(Cc3cc(F)cc(Oc4ccc(Cl)cc4)c3)CC2)nc1C(=O)O` [Example 346, 1-(4-(3-(4-chlorophenoxy)-5-fluorobenzyl)-piperazine-1-carbonyl)-4-methyl-1H-pyrazole-3-carboxylic acid], the IC50 is less than 0.1 µM.
On to `CNC(=O)c1ccn(C(=O)N2C[C@H]3C[C@@H](N(C)Cc4ccccc4C(F)(F)F)C[C@H]3C2)n1` [Example 434, N-methyl-1-(cis-5-(methyl(2-(trifluoromethyl)-benzyl)amino)-octahydrocyclopenta-[c]pyrrole-2-carbonyl)-1H-pyrazole-3-carboxamide], for which the IC50 is less than 0.1 µM.
With `O=C(O)c1ccn(C(=O)N2CCN(Cc3cccc(Oc4ccc(C(F)(F)F)cn4)c3)CC2)n1` [Example 61, 1-(4-(3-((5-(trifluoromethyl)-pyridin-2-yl)oxy)benzyl)-piperazine-1-carbonyl)-1H-pyrazole-3-carboxylic acid], the IC50 was less than 0.1 µM.
Under `O=C(O)c1nn(C(=O)N2CC3CN(Cc4cc(Cl)cc(C(F)(F)F)c4)CC3C2)cc1Cl` (centres unmarked) [Example 357, 4-chloro-1-(5-(3-chloro-5-(trifluoromethyl)-benzyl)-octahydropyrrolo-[3,4-c]pyrrole-2-carbonyl)-1H-pyrazole-3-carboxylic acid] stands less than 0.1 µM.
As for `O=C(O)c1ccn(C(=O)N2C[C@H]3C[C@H](Oc4cccc(-c5ccccn5)c4)C[C@H]3C2)n1` [Example 242, 1-(trans-5-(3-(pyridin-2-yl)phenoxy)-octahydrocyclopenta-[c]pyrrole-2-carbonyl)-1H-pyrazole-3-carboxylic acid], the IC50 is less than 0.1 µM.
For `O=C(O)c1ccn(C(=O)N2CCN(Cc3cccc(Oc4ccc(Cl)cc4)c3)CC2)n1` [Example 98, 1-(4-(3-(4-chlorophenoxy)-benzyl)-piperazine-1-carbonyl)-1H-pyrazole-3-carboxylic acid], the IC50 is less than 0.1 µM.
Turning to `O=C(O)c1nn(C(=O)N2CCN(Cc3cccc(Oc4cc(C(F)(F)F)ccn4)c3)CC2)cc1C(F)(F)F` [Example 414, 4-(trifluoromethyl)-1-(4-(3-((4-(trifluoromethyl)-pyridin-2-yl)oxy)benzyl)-piperazine-1-carbonyl)-1H-pyrazole-3-carboxylic acid], the IC50 is less than 0.1 µM.
`CN(Cc1cc(N2CCCC2)cc(C(F)(F)F)c1)C1(C)CCN(C(=O)n2ccc(C(=O)O)n2)CC1` [Example 381, 1-(4-methyl-4-(methyl(3-(pyrrolidin-1-yl)-5-(trifluoromethyl)-benzyl)amino)-piperidine-1-carbonyl)-1H-pyrazole-3-carboxylic acid]: the 50% inhibitory concentration (IC50) was less than 0.1 µM.
As for `C[C@H]1CN(Cc2cc(F)cc(Oc3ccccc3Cl)c2)CCN1C(=O)n1ccc(C(=O)O)n1` [Example 349, (S)-1-(4-(3-(2-chlorophenoxy)-5-fluorobenzyl)-2-methylpiperazine-1-carbonyl)-1H-pyrazole-3-carboxylic acid], the IC50 was less than 0.1 µM.
Under `Cc1cn(C(=O)N2C[C@H]3C[C@H](Oc4cccc(-c5ccccc5)c4)C[C@H]3C2)nc1C(=O)O` [Example 280, 1-(trans-5-([1,1′-biphenyl]-3-yloxy)-octahydrocyclopenta-[c]pyrrole-2-carbonyl)-4-methyl-1H-pyrazole-3-carboxylic acid] stands less than 0.1 µM.
For `O=C(O)c1nn(C(=O)N2CCC3(CCN(Cc4ccc(N5CCCC5)cc4C(F)(F)F)C3)CC2)cc1Cl` [Example 138, 4-chloro-1-(2-(4-(pyrrolidin-1-yl)-2-(trifluoromethyl)-benzyl)-2,8-diazaspiro[4.5]-decane-8-carbonyl)-1H-pyrazole-3-carboxylic acid], the IC50 was less than 0.1 µM.
Then `C[C@H]1CN(Cc2cc(Cl)cc(C(F)(F)F)c2)CCN1C(=O)n1ccc(C(N)=O)n1` [Example 271, (S)-1-(4-(3-chloro-5-(trifluoromethyl)-benzyl)-2-methylpiperazine-1-carbonyl)-1H-pyrazole-3-carboxamide], with less than 0.1 µM.
Take `O=C(O)c1nn(C(=O)N2CCN(Cc3cccc(Oc4cc(C(F)(F)F)ccn4)c3)CC2)cc1Cl` [Example 399, 4-chloro-1-(4-(3-((4-(trifluoromethyl)-pyridin-2-yl)oxy)benzyl)piperazine-1-carbonyl)-1H-pyrazole-3-carboxylic acid]: the IC50 was less than 0.1 µM.
As for `C[C@@H]1CN(Cc2ccc(-c3ccccc3)cc2F)CCN1C(=O)n1ccc(C(=O)O)n1` [Example 253, (R)-1-(4-((3-fluoro-[1,1′-biphenyl]-4-yl)methyl)-2-methylpiperazine-1-carbonyl)-1H-pyrazole-3-carboxylic acid], the IC50 was less than 0.1 µM.
Take `O=C(O)c1nn(C(=O)N2CCN(Cc3cc(Cl)cc(-c4cncnc4)c3)CC2)cc1Cl` [Example 323, 4-chloro-1-(4-(3-chloro-5-(pyrimidin-5-yl)benzyl)-piperazine-1-carbonyl)-1H-pyrazole-3-carboxylic acid]: the IC50 was less than 0.1 µM.
Regarding `NC(=O)c1ccn(C(=O)N2CCN(Cc3cccc(C(F)(F)F)c3N3CCOCC3)CC2)n1` [Example 199, 1-(4-(2-morpholino-3-(trifluoromethyl)-benzyl)piperazine-1-carbonyl)-1H-pyrazole-3-carboxamide], the IC50 was less than 0.1 µM.
Turning to `Cc1cc(O[C@H]2C[C@@H]3CN(C(=O)n4ccc(C(=O)O)n4)C[C@@H]3C2)ccc1C(F)(F)F` [Example 254, 1-(trans-5-(3-methyl-4-(trifluoromethyl)-phenoxy)-octahydrocyclopenta-[c]pyrrole-2-carbonyl)-1H-pyrazole-3-carboxylic acid], the IC50 is less than 0.1 µM.
`C[C@@H]1C[C@@H](N(C)Cc2cccc(C(F)(F)F)c2)CCN1C(=O)n1ccc(C(N)=O)n1` [Example 260, 1-((2R,4S)-2-methyl-4-(methyl(3-(trifluoromethyl)-benzyl)amino)-piperidine-1-carbonyl)-1H-pyrazole-3-carboxamide]: the IC50 was less than 0.1 µM.
As to `CNC(=O)c1ccn(C(=O)N2CC3CN(Cc4ccc(N5CCOCC5)cc4C(F)(F)F)CC3C2)n1` (centres unmarked) [Example 440, N-methyl-1-(5-(4-morpholino-2-(trifluoromethyl)-benzyl)-octahydropyrrolo-[3,4-c]pyrrole-2-carbonyl)-1H-pyrazole-3-carboxamide], the IC50 is less than 0.1 µM.
